Data taken from paper PMC2266582 (The Journal of General Physiology, 2005).
Read-outs that look alike come from different tables or passages of the source.

What was measured:
KcsA tetramer [1] = target: T1, KcsA tetramer (Streptomyces lividans, UniProt P0A334); experiment: Tetramer protection titration of stabilizing cations against high temperature; type: binding; conditions: 100 mM choline Cl
T1 sequence (P0A334 1-160): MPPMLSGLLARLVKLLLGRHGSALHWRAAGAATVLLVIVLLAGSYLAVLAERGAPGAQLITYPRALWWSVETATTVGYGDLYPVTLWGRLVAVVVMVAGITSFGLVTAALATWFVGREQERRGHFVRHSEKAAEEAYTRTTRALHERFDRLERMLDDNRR

[2] = cited from earlier work; for Pauling crystal radii: ref Bezanilla and Armstrong, 1972, Armstrong, 2003
KcsA tetramer [3] = target: T1, KcsA tetramer; experiment: Temperature dependence of KcsA tetramer monitored by SDS-PAGE; conditions: for effect on temperature dependence of KcsA tetramer: 5 mM MgCl2 or 5 mM CaCl2 added to 100 mM choline Cl; for thermal stability of KcsA tetramer: 100 mM KCl or 100 mM NaCl, heated 10 min at 60–99°C
KcsA tetramer [4] = target: T1, KcsA tetramer; experiment: Time course of decay of KcsA tetramer at 90°C; type: binding
KcsA tetramer [5] = target: T1, KcsA tetramer; type: binding
[6] = values determined by Pauling, ref Hille (2001)
[7] = K0.5 (cation concentration at half-maximal stabilization), fit to Eq. 1, heated 10 min at 90°C, 10 mM Hepes-Tris pH 7.4

Which results are given for `[Ba+2]` [Ba^2+, BaCl2]?
EC50 (KcsA tetramer [1]; K0.5 of tetramer protection titration, heated 10 min at 90°C): 0.21 µM; Radius [2, 6]: 1.35 Å

For `[Ca+2].[Cl-].[Cl-]` [Ca^2+, CaCl2], which “effect on temperature dependence of KcsA tetramer” value (KcsA tetramer [3]) is on record?
Its value is “small protective effect at temperatures >60 °C”.

Which EC50 (KcsA tetramer [1]; [7]) does the source give for `[Cs+]` [Cs^+, CsCl] here?
Its EC50 is 4100 ± 3500 µM.

What about the Radius [2, 6] of the same compound?
The Radius was 1.69 Å.

What does the source list for `[K+]` [K^+, KCl]?
EC50 (KcsA tetramer [1]; [7]): 1500 ± 2500 µM; time course of tetramer denaturation (KcsA tetramer [4]; 0.1 mM K^+ added to 100 mM choline Cl, 90°C): complex slower biphasic decay; loss of tetramer (KcsA tetramer [4]; 100 mM KCl, 30 min of incubation at 90°C): virtually no loss of tetramer; Pauling crystal radii [2]: 1.33 Å; Radius [2, 6]: 1.33 Å; thermal stability of KcsA tetramer (KcsA tetramer [3]): fully stable

For `[Li+]` [Li^+, LiCl], which IC50 (KcsA tetramer [5]) is on record?
The IC50 was 57000 µM.

With `[Cl-].[Cl-].[Mg+2]` [Mg^2+, MgCl2] as the compound, how does the “effect on temperature dependence of KcsA tetramer” value (KcsA tetramer [3]) read?
The value was “destabilize KcsA at lower temperatures”.

With `N` [NH4 ^+, NH4Cl] as the compound, how does the Radius ([2]; estimated by a molecular graphics approach, ref Sun et al. (1997)) read?
Its Radius is 1.8 Å.

Which Pauling crystal radii [2] does the source give for `[Na+]` [Na^+, NaCl] here?
Its Pauling crystal radii is 0.95 Å.

What about the “thermal stability of KcsA tetramer” value (KcsA tetramer [3]) of the same compound?
Its value is “progressively lost at temperatures >65 °C”.

Which EC50 (KcsA tetramer [1]; [7]) does the source give for `[Rb+]` [Rb^+, RbCl] here?
Its EC50 is 1700 ± 3300 µM.

And the Radius [2, 6]?
The Radius was 1.48 Å.

What does the source list for `[Sr+2]` [Sr^2+, SrCl2]?
EC50 (KcsA tetramer [1]; K0.5 of tetramer protection titration, heated 10 min at 85°C): 11 µM; Radius [2, 6]: 1.13 Å

With `[Tl+]` [Tl^+, Tl acetate] as the compound, how does the EC50 (KcsA tetramer [1]; [7]) read?
The EC50 was 1100 µM.

And the Radius [2, 6]?
The Radius was 1.40 Å.

Which “time constant of single exponential decay of tetramer” value (KcsA tetramer [4]; 100 mM choline Cl, absence of K^+, 90°C) does the source give for `C[N+](C)(C)CCO.[Cl-]` [choline^+, choline Cl] here?
The value was 16.5 s.
